Several values for one entry are separate records, joined by “and”; a condition that tells them apart may be missing. Equal entries are not always repeated. Structures can show the parent of a compound that is named as a salt. Marks after values point to notes of the source that are not given here.
Assays:
[1] = Glucose tolerance studies; conditions: mean ± SE of 4 mice
Protocol: Glucose Tolerance Studies. Female C5781/6 mice were fasted overnight and administered a single dose of D(+) glucose (1 mg/kg) as a 0.1 g/ml solution po. […] Human recombinant insulin was administered at 0.075:g/kg ip (26) at the same time as glucose administration.
Values are the mean±SE of 4 mice per group.

[2] = test system: OvCaR-3 ovarian; assay: Antitumor activity of wortmannin analogs, OvCaR-3 ovarian tumor (Table 1); format: in vivo; conditions: initial tumor vol 120 mm^3; for T/C % (optimal test/control): day 40
[3] = test system: HT-29 colon; assay: Antitumor activity of wortmannin analogs, HT-29 colon tumor (Table 1); format: in vivo; conditions: for T/C % (optimal test/control): day 16
[4] = test system: A-549 lung; assay: Antitumor activity of cytotoxic drugs alone or combined with PX-866, A-549 lung (Table 2); format: in vivo; conditions: size 300 mm^3; cisplatin ip 1 mg/kg QD × 5
[5] = test system: HT-29 colon; assay: Antitumor activity of cytotoxic drugs alone or combined with PX-866, HT-29 colon (Table 2); format: in vivo; conditions: size 150 mm^3; cisplatin ip 2.5 mg/kg Q2D × 3
[6] = test system: A-549 human nsc lung cancer xenografts; assay: Antitumor studies, PX-866 and gefitinib in A-549 xenografts; format: in vivo, scid mice
Protocol: Antitumor Studies. […] When the tumors reached 100 or 600 mm3 the mice were stratified into groups of 8 animals having approximately equal mean tumor volumes and drug administration was started. […] Animals were weighed weekly and tumor diameters were measured twice weekly at right angles (d short and d long) with electronic calipers and tumor volumes calculated by the formula volume=(dshort)2×(dlong))2. When the tumor reached 2,000 mm3 or more, or became necrotic the animals were euthanized.
In vivo antitumor studies. […] Tumors were allowed to grow to a mean volume of […] before drug treatment was started every other day for 14 doses. Antitumor activity is expressed as the % volume of the treated tumor/control tumor (T/C %) at the end of the dosing period. There were 8 mice in each group and all differences are p<0.01.

[7] = test system: tumor phospho-Akt (A-549 tumor xenografts); assay: Pharmacodynamic studies, tumor phospho-Akt in A-549 xenografts; format: in vivo, scid mice; conditions: gefitinib 75 mg/kg po every other day for 5 days
Source text: Pharmacodynamic Studies. […] Tumor Akt activity was expressed as the ratio of phospho-Ser473-Akt to total Akt.

[8] = test system: Panc-1 pancreatic; assay: Antitumor activity of cytotoxic drugs alone or combined with PX-866, Panc-1 pancreatic (Table 2); format: in vivo; conditions: size 75 mm^3; gemcitabine ip 150 mg/kg Q3D × 3
[9] = test system: OvCaR-3 ovarian; assay: Antitumor activity of cytotoxic drugs alone or combined with PX-866, OvCar-3 ovarian (Table 2); format: in vivo; conditions: size 110 mm^3; taxol ip 12 mg/kg Q2D × 5
[10] = biological target: T1, p110α/p85α (Bos taurus, UniProt P32871); assay: Inhibition of recombinant PtdIns-3-kinase, [32P]-ATP dependent phosphorylation of PtdIns; format: biochemical, bovine
T1 construct: purchased Upstate (Charlottesville, Va.)
T1 sequence (P32871 whole entry): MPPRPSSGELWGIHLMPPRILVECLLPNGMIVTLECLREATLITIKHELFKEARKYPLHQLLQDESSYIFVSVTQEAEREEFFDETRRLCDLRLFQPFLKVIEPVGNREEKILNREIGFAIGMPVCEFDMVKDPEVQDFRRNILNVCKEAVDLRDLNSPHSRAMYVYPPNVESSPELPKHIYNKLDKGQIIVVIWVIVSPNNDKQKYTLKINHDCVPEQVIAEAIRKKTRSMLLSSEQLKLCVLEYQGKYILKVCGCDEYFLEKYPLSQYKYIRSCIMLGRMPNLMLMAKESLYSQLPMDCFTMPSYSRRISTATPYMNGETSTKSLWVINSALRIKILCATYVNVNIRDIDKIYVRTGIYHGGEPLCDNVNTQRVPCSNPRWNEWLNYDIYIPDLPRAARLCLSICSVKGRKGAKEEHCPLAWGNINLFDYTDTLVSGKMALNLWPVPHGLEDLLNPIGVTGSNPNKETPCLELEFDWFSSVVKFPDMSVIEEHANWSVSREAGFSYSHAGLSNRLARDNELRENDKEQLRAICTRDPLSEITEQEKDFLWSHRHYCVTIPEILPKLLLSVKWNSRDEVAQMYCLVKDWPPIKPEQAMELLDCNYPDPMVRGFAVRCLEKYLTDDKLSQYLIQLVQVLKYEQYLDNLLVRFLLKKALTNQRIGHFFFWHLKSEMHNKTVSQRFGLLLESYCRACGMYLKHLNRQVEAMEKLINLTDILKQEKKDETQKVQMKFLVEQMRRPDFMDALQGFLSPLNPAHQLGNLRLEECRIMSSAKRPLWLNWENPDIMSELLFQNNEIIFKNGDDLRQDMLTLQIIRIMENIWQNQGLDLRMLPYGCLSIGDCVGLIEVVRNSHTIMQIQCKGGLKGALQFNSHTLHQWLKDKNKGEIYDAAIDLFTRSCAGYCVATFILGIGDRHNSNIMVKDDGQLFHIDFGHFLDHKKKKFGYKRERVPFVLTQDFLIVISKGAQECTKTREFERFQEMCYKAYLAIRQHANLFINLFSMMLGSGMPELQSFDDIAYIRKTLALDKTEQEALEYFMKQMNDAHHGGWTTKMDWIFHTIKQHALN
T1 sequence (P23727 2-724 partner): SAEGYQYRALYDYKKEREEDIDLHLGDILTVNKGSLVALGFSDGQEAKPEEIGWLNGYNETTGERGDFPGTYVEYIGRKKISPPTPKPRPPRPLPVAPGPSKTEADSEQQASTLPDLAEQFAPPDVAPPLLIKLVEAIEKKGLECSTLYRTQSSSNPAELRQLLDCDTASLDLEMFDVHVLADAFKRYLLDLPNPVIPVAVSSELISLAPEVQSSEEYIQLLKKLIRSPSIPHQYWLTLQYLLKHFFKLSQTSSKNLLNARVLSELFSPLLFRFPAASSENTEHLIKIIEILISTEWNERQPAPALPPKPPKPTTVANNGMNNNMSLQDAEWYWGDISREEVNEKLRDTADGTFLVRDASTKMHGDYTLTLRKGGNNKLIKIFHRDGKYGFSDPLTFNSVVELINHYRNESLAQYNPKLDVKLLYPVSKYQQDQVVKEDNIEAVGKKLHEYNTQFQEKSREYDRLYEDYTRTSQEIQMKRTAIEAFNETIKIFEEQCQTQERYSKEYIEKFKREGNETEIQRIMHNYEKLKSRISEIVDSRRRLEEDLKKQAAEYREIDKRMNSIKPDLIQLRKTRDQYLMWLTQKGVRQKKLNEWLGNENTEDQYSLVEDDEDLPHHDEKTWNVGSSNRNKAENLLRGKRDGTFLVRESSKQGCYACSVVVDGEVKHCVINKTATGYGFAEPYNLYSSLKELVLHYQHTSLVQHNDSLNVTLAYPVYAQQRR
Source text: Materials and Methods. Compounds. […] Rabbit purified anti-phosphoSer473-Akt antibody, anti-Akt antibody, antiphospho Tyr1086-EGF-receptor antibody and anti-EGFR antibody were obtained from Cell Signaling Technology (Beverly, Mass.). Human recombinant p110α/p85α, p110β/p85α, p120 (and p110*/p85α PtdIns-3-kinases were obtained from Upstate (Charlottesville, Va.). Metformin hydrochloride was obtained from Spectrum Chemical (Gardena, Calif.), pioglitazone hydrochloride and recombinant human insulin from Sigma Chemical (St. Louis).
Measurement of PtdIns-3-kinase.

[11] = initial tumor vol 170 mm^3, 13 mg/kg/day ip Q1D × 9
[12] = initial tumor vol 180 mm^3, 0.75 mg/kg/day ip Q1D × 9

CN(C)C(=N)N=C(N)N [Metformin, Metformin hydrochloride, reference compound]
plasma glucose AUC0-180 min ([1]; Metformin 250 mg/kg IP QD × 5, without PX-866): 367 ± 46 mg·min/mL | plasma glucose AUC0-180 min ([1]; Metformin 250 mg/kg IP QD × 5 with PX-866 10 mg/kg po, hydrochloride): 537 ± 4^b mg · min · ml^−1 | plasma glucose AUC0-180 min ([1]; Metformin 250 mg/kg IP QD × 5 with PX-866 10 mg/kg po, listed as metformin, hydrochloride): had no effect

COC[C@@H]1OC(=O)/C(=C/N2CCCC2)C2=C(O)C(=O)C3=C([C@H](OC(C)=O)C[C@]4(C)C(=O)CC[C@H]34)[C@]21C [PX-867, Acetic acid 6-hydroxy-1α-methoxymethyl-10β,13β-dimethyl-3,7,17-trioxo-4-pyrrolidin-1-yl-methylene-1,3,4,7,10,11β,12,13,14α,15,16,17-dodecahydro-2-oxa-cyclopenta[α]phenanthren-11-yl]
Growth Delay ([2]; 13 mg/kg/day ip Q1D × 9): 6 days | Log10 cell kill ([2]; 13 mg/kg/day ip Q1D × 9): 0.6 | T/C % (optimal test/control) ([2]; 13 mg/kg/day ip Q1D × 9): 41 (40) % | Growth Delay [3, 11]: 0 days | Log10 cell kill [3, 11]: 0 | T/C % (optimal test/control) [3, 11]: 80 (16) %

CCc1ccc(CCOc2ccc(CC3SC(=O)NC3=O)cc2)nc1 (stereo not drawn) [Pioglitazone, pioglitazone hydrochloride, reference compound]
plasma glucose AUC0-180 min ([1]; Pioglitazone 10 mg/kg ip QD × 7, without PX-866): 274 ± 3 mg·min/mL | plasma glucose AUC0-180 min ([1]; Pioglitazone 10 mg/kg ip QD × 7 with PX-866 10 mg/kg po, hydrochloride): 340 ± 39^c mg · min · ml^−1

N.N.[Cl][Pt][Cl] [cisplatin, reference compound]
Alone Growth delay days [4]: 1 days | Alone TGI % [4]: 16% | Alone log cell kill [4]: 0.1 | Alone Growth delay days [5]: 0 days | Alone TGI % [5]: 11% | Alone log cell kill [5]: 0

COc1cc2ncnc(Nc3ccc(F)c(Cl)c3)c2cc1OCCCN1CCOCC1 [gefitinib, reference compound]
tumor T/Cs ([6]; administered long term, single agent (discussion)): around 50% | Tumor T/C % ([6]; gefitinib po 75 mg/kg QOD × 14, 100 mm3 tumors, end of dosing period, 75 mg/kg): 51% and 50.8% | effect upon tumor phospho-Akt [7]: no significant effect

Nc1ccn([C@@H]2O[C@H](CO)[C@@H](O)C2(F)F)c(=O)n1 [gemcitabine, reference compound]
Alone Growth delay days [8]: 7 days | Alone TGI % [8]: 38% | Alone log cell kill [8]: 0.2

CC(=O)O[C@H]1C(=O)[C@@]2(C)[C@H]([C@H](OC(=O)c3ccccc3)[C@]3(O)C[C@H](OC(=O)[C@H](O)[C@@H](NC(=O)c4ccccc4)c4ccccc4)C(C)=C1C3(C)C)[C@]1(OC(C)=O)CO[C@@H]1C[C@@H]2O [taxol, paclitaxel, reference compound]
Alone Growth delay days [9]: 13 days | Alone TGI % [9]: 58% | Alone log cell kill [9]: 1.0

COC[C@H]1OC(=O)c2coc3c2[C@@]1(C)C1=C(C3=O)[C@@H]2CCC(=O)[C@@]2(C)C[C@H]1OC(C)=O [wortmannin, reference compound]
Growth Delay ([2]; 0.75 mg/kg/day ip Q1D × 9): 5 days | Log10 cell kill ([2]; 0.75 mg/kg/day ip Q1D × 9): 0.5 | T/C % (optimal test/control) ([2]; 0.75 mg/kg/day ip Q1D × 9): 47 (40) % | Growth Delay [3, 12]: 5 days | Log10 cell kill [3, 12]: 0.3 | T/C % (optimal test/control) [3, 12]: 36 (16) % | IC50 [10]: 4 nM

Insulin: recombinant human insulin from Sigma Chemical
plasma glucose AUC0-180 min ([1]; Insulin 0.075 μ/kg ip with PX-866 10 mg/kg po): 64 ± 5^ mg · min · ml^−1 | plasma glucose AUC0-180 min ([1]; Insulin 0.075 μ/kg ip with PX-866 10 mg/kg po, listed as insulin): overcame the increase in plasma glucose caused by PX-866 | plasma glucose AUC0-180 min ([1]; Insulin 0.075 μ/kg ip, without PX-866): 64 ± 25 mg·min/mL
